Reference: US9540649B2, “Method for opening tight junctions” (The Provost, Fellows and Scholars of the College of the …, priority 2007, dated 2017)
Entries after “also recorded” stand apart in the source; their conditions may differ.

How the values were obtained:
claudin-5 = assay: Immunohistochemical analysis of claudin-5 expression and localisation in brain microvessels; assay type: in vivo, C57/Bl6 mice
Description: Rapid high pressure, high volume tail vein injections were carried out (Kiang et al., 2005). Wild type C57/Bl6 mice of weight 20-30 g were individually restrained inside a 60-ml volume plastic tube. The protruding tail was warmed for 5 minutes prior to injection under a 60-W lamp and the tail vein clearly visualized by illumination from below. 20 micrograms of targeting siRNA, or non-targeting siRNA made up with PBS to a volume in mls of 10% of the body weight in grams or PBS alone, was injected into the tail vein at a rate of 1 ml/sec using a 26-gauge (26 G 3/8) needle. After 24, 48, 72 hours and 1 week, protein was isolated from total brain tissue by crushing brains to a fine powder in liquid N2 and subsequently using lysis buffer containing 62.5 mM Tris, 2% SDS, 10 mM Dithiothreitol, 10 μl protease inhibitor cocktail/100 ml (Sigma Aldrich, Ireland). The homogenate was centrifuged at 10,000 g for 20 mins @4° C., and the supernatant was removed for claudin-5 analysis.
Brain cryosections were blocked with 5% Normal Goat Serum (NGS) in PBS for 20 mins at room temperature. Primary antibody (Rabbit anti-Claudin-5, Zymed, California) was incubated on sections overnight at 4° C. […] A secondary rabbit IgG-Cy3 antibody was incubated with the sections at 37° C. for 2 hours followed by 3 washes with PBS. All sections were counterstained with DAPI for 30 seconds at a dilution of 1:5000 of a stock 1 mg/ml solution. Analysis of stained sections was performed with an Olympus FluoView™ FV1000 Confocal microscope.

claudin-1 = assay: Claudin-1 expression following suppression of claudin-5 (Western blot, double immunostaining); assay type: in vivo, C57/Bl6 mice
Tie-2 = Tie-2 expression following suppression of claudin-5 (Western blot); assay type: in vivo, C57/Bl6 mice; conditions: any time point post delivery of claudin-5 siRNA
occludin = assay: Occludin expression following suppression of claudin-5 (Western blot, immunohistochemistry); assay type: in vivo, C57/Bl6 mice; conditions: all time points post-delivery of claudin-5 siRNA
BRB = BRB permeability to Hoechst (562 Da), retinal cryosections and flatmounts; assay type: in vivo, C57/Bl6 mice
Description: In order to determine the permeability of brain and retinal microvessels to a molecule of 562 Daltons, mice were perfused through the left ventricle with 500 μl/g body weight of PBS containing 100 μg/ml Hoechst stain H33342 (Sigma Aldrich, Ireland) and 1 mg/ml FITC-Dextran-4 (FD-4) 24, 48, 72 hours and 1 week post-hydrodynamic delivery of claudin-5 siRNA. Following perfusion, the whole brain was dissected and placed in 4% PFA pH 7.4 overnight at 4° C. and subsequently washed 4×15 mins with PBS. Brains were then embedded in 4% agarose and 50 μm sections were cut using a Vibratome®. Whole eyes were removed and fixed with 4% PFA, and following washing with PBS and cryoprotection using a sucrose gradient, 12 μm cryosections were cut using a cryostat. Following analysis of retinal cryosections with an Olympus FluoView™ FV1000 Confocal microscope, images were oriented correctly using Adobe® Photoshop®.

[1] = tested on: endothelial cells of heart, liver, lung and kidney; assay: Endothelial cell morphology of major organs (Griffonia simplicifolia-isolectin B4 staining); assay type: in vivo, mouse; conditions: all time points; vs control groups
Description: Following hydrodynamic injection of siRNA targeting claudin-5, cryosections were prepared of all the major organs, the heart, liver, lung and kidney. Sections were incubated overnight at 4° C. with HRP-conjugated Griffonia simplicifolia-isolectin B4 in order to stain the endothelial cells of organs.

[2] = MRI water diffusion in the brains of mice after claudin-5 siRNA; assay type: in vivo; conditions: 24 and 48 hours post injection
Description: 24 and 48 hours post-delivery of siRNA targeting claudin-5 or a non-targeting siRNA mice were anaesthetised with isofluorane, and physiologically monitored (ECG, respiration and temperature) and placed on an MRI-compatible support cradle, which has a built-in system for maintaining the animal's body temperature at 37° C. The cradle was then positioned within the MRI scanner. Accurate positioning is ensured by acquiring an initial rapid pilot image, which is then used to ensure the correct geometry is scanned in all subsequent MRI experiments. Upon insertion into the MRI scanner, high resolution anatomical images of the brain were acquired (100 μm in-plane and 500 μm through-plane spatial resolution). Water diffusion scans were subsequently undertaken. Using a standard diffusion imaging sequence such as a spin-echo EPI imaging sequence with diffusion gradients (Stejskal-Taner gradients) in order to acquire images over a large range of b-values. In this way, the effect of the technique in the vascular compartment and in the brain parenchymal tissue can be compared. All experiments were carried out on a 7 T Brüker small-bore system with 400 mT/m maximum gradient strength. Image processing and calculation of ADCs was carried out using IDL.

claudin-5 siRNA: siRNA, sense CGUUGGAAAUUCUGGGUCUUU (SEQ ID NO: 1), antisense AGACCCAGAAUUUCCAACGUU (SEQ ID NO: 2) (listed as RNA, chemistry not given here)
claudin-5 staining pattern in brain microvessels, immunohistochemistry (claudin-5; 24 hours post delivery): decreased and non-continuous; also recorded: less intense
claudin-5 staining pattern in brain microvessels, immunohistochemistry (claudin-5; 48 hours post injection): striking decrease in expression; also recorded: marked decrease; also recorded: dramatically reduced
claudin-5 staining pattern in brain microvessels, immunohistochemistry (claudin-5; 48 hours post injection, listed as siRNA targeting claudin-5): highly fragmented and discontinuous
claudin-5 staining pattern in brain microvessels, immunohistochemistry (claudin-5; 72 hours post-injection): evident, yet non-continuous; also recorded: evident, yet not as intense as the control groups; also recorded: still attenuated
claudin-1 (23 kDa) expression, Western blot (claudin-1; 24, 48, 72 hours and 1 week post delivery of claudin-5 siRNA): no changes at any time points
claudin-1 expression, double immunostaining in brain cryosections (claudin-1; each time point post-injection of claudin-5 siRNA): remain similar to those observed in the control groups
Tie-2 (140 kDa) expression, Western blot (Tie-2): no distinct changes
occludin expression, Western blot (occludin): remain un-changed at all time points
Hoechst staining in retinal flatmounts (BRB; 24 and 48 hours post injection): stain extravascular nuclei
extravasation of Hoechst in 12 μm retinal cryosections (BRB; 24 hours post delivery): Inner Nuclear Layer (INL) appearing stained
extravasation of Hoechst in 12 μm retinal cryosections (BRB; 48 hours post delivery): distinct Outer Nuclear Layer (ONL) staining
extravasation of Hoechst H33342 from retinal microvessels, retinal cryosections (BRB; up to 48 hour post-delivery): staining the Inner Nuclear Layer (INL) and Outer Nuclear Layer (ONL) of the retina
endothelial cell morphology in liver, lung, kidney and heart [1]: appeared similar at all time points and in all major organs
rate of water diffusion in the brain, MRI [2]: no changes in diffusion
rate of water diffusion in the brain, MRI ([2]; listed as siRNA targeting claudin-5): no change in the rate of water diffusion
